US20110053773A1, “METHODS OF IMPROVING NUTRITIONAL VALUE OF PLANTS” (UNIVERSITY OF TENNESSEE RESEARCH FOUNDATION, priority 2009, published 2011)

Tests used:
basil 'Genovese' [1] = experiment: Content analysis of basil: protein, minerals (Example 4, Tables 10-11); format: in vivo; conditions: 28 DA-A
Protocol: (§1) Greenhouse and laboratory studies were conducted to ascertain the tolerance and nutritional quality differences following postemergence applications of the insecticide chlorpyrifos, the fungicide chlorothalonil, the PGRs mepiquat-chloride and paclobutrazol, and the safeners napthalic anhydride and isoxadifen-ethyl on kale ‘Red Russian’ and basil ‘Genovese’. Visual injury was rated based on general phytotoxicity, chlorosis, and visual stunting and each measurement was based on a percent scale from 0 to 100 where 0 equals no visual response and 100 equals complete plant death. Kale and basil were both harvested approximately 4 weeks after treatments and plants were pooled over replicates for content analysis of crude protein, crude amino acid content, acid detergent fiber, neutral detergent fiber, total fatty acids, and/or key mineral content (including Na, Ca, P, Mg, K, Fe, Mn, Zn, and Cu). In addition, the amounts of key individual amino acids (aspartic acid, threonine, glutamic acid, proline, glycine, cysteine, valine, leucine, isoleucine, methionine, and lysine) and composite classifications of fatty acid (saturated fatty acids, monounsaturated fatty acids, polyunsaturated fatty acids) were also analyzed from these sub-samples for kale (Tables 10-14).

basil 'Genovese' [2] = experiment: Visual injury of basil after insecticide, fungicide, PGRs, safeners (Example 4)
Protocol: as §1

basil ‘Genovese’ = experiment: Yield, fresh weight of basil after insecticide, fungicide, PGRs and safeners (Example 4, Table 10); format: in vivo; conditions: DA-A, check 31.8
Protocol: as §1

[3] = rates g ai/ha: chlroprifos 3370, chlorothalonil 7900, paclobutrazol 9.7, mepiquat-chloride 37, Isoxadifen 16, Napthalic anhydride 527, + NIS 0.25 % v/v
[4] = rates g ai/ha: chlropyrifos 1120, chlorothalonil 2630, paclobutrazol 3.23, mepiquat-chloride 12.3, Isoxadifen 8, Napthalic anhydride 264, + NIS 0.25 % v/v
[5] = 7 DA-A, rates g ai/ha: chlropyrifos 1120, chlorothalonil 2630, paclobutrazol 3.23, mepiquat-chloride 12.3, Isoxadifen 8, Napthalic anhydride 264, + NIS 0.25 % v/v
[6] = 7 DA-A, rates g ai/ha: chlropyrifos 3370, chlorothalonil 7900, paclobutrazol 9.7, mepiquat-chloride 37, Isoxadifen 16, Napthalic anhydride 527, + NIS 0.25 % v/v
[7] = 14 DA-A, rates g ai/ha: chlropyrifos 1120, chlorothalonil 2630, paclobutrazol 3.23, mepiquat-chloride 12.3, Isoxadifen 8, Napthalic anhydride 264, + NIS 0.25 % v/v
[8] = 14 DA-A, rates g ai/ha: chlropyrifos 3370, chlorothalonil 7900, paclobutrazol 9.7, mepiquat-chloride 37, Isoxadifen 16, Napthalic anhydride 527, + NIS 0.25 % v/v
[9] = 28 DA-A, rates g ai/ha: chlropyrifos 1120, chlorothalonil 2630, paclobutrazol 3.23, mepiquat-chloride 12.3, Isoxadifen 8, Napthalic anhydride 264, + NIS 0.25 % v/v
[10] = 28 DA-A, rates g ai/ha: chlropyrifos 3370, chlorothalonil 7900, paclobutrazol 9.7, mepiquat-chloride 37, Isoxadifen 16, Napthalic anhydride 527, + NIS 0.25 % v/v

SMILES: CCOC(=O)C1=NOC(c2ccccc2)(c2ccccc2)C1 [isoxadifen, isoxadifen-ethyl]
- ADF, Percent Increase Over the Untreated Check (on a % dry matter basis) (basil 'Genovese' [1]; [3]): 13 % check
- Calcium, Percent Increase Over the Untreated Check (on a % dry matter basis) (basil 'Genovese' [1]; [3]): 6 % check
- Copper, Percent Increase Over the Untreated Check (on a % dry matter basis) (basil 'Genovese' [1]; [3]): 0 % check
- Iron, Percent Increase Over the Untreated Check (on a % dry matter basis) (basil 'Genovese' [1]; [3]): 27 % check
- Magnesium, Percent Increase Over the Untreated Check (on a % dry matter basis) (basil 'Genovese' [1]; [3]): 12 % check
- Manganese, Percent Increase Over the Untreated Check (on a % dry matter basis) (basil 'Genovese' [1]; [3]): 118 % check
- NDF, Percent Increase Over the Untreated Check (on a % dry matter basis) (basil 'Genovese' [1]; [3]): 0 % check
- Phosphorous, Percent Increase Over the Untreated Check (on a % dry matter basis) (basil 'Genovese' [1]; [3]): 28 % check
- Potassium, Percent Increase Over the Untreated Check (on a % dry matter basis) (basil 'Genovese' [1]; [3]): 16 % check
- Protein, Percent Increase Over the Untreated Check (on a % dry matter basis) (basil 'Genovese' [1]; [3]): 22 % check
- Sodium, Percent Increase Over the Untreated Check (on a % dry matter basis) (basil 'Genovese' [1]; [3]): 17 % check
- Soluble protein, Percent Increase Over the Untreated Check (on a % dry matter basis) (basil 'Genovese' [1]; [3]): 4 % check
- Zinc, Percent Increase Over the Untreated Check (on a % dry matter basis) (basil 'Genovese' [1]; [3]): 34 % check
- ADF, Percent Increase Over the Untreated Check (on a % dry matter basis) (basil 'Genovese' [1]; [4]): 6 % check
- Calcium, Percent Increase Over the Untreated Check (on a % dry matter basis) (basil 'Genovese' [1]; [4]): −2 % check
- Copper, Percent Increase Over the Untreated Check (on a % dry matter basis) (basil 'Genovese' [1]; [4]): 0 % check
- Iron, Percent Increase Over the Untreated Check (on a % dry matter basis) (basil 'Genovese' [1]; [4]): 25 % check
- Magnesium, Percent Increase Over the Untreated Check (on a % dry matter basis) (basil 'Genovese' [1]; [4]): 9 % check
- Manganese, Percent Increase Over the Untreated Check (on a % dry matter basis) (basil 'Genovese' [1]; [4]): 10 % check
- NDF, Percent Increase Over the Untreated Check (on a % dry matter basis) (basil 'Genovese' [1]; [4]): 1 % check
- Phosphorous, Percent Increase Over the Untreated Check (on a % dry matter basis) (basil 'Genovese' [1]; [4]): 17 % check
- Potassium, Percent Increase Over the Untreated Check (on a % dry matter basis) (basil 'Genovese' [1]; [4]): 17 % check
- Protein, Percent Increase Over the Untreated Check (on a % dry matter basis) (basil 'Genovese' [1]; [4]): 14 % check
- Sodium, Percent Increase Over the Untreated Check (on a % dry matter basis) (basil 'Genovese' [1]; [4]): 27 % check
- Soluble protein, Percent Increase Over the Untreated Check (on a % dry matter basis) (basil 'Genovese' [1]; [4]): 12 % check
- Zinc, Percent Increase Over the Untreated Check (on a % dry matter basis) (basil 'Genovese' [1]; [4]): 38 % check
- Phytotoxicity Chlorosis (basil 'Genovese' [2]; [5]): 8%
- Phytotoxicity General (basil 'Genovese' [2]; [5]): 3%
- Phytotoxicity Stunting (basil 'Genovese' [2]; [5]): 2%
- Phytotoxicity Chlorosis (basil 'Genovese' [2]; [6]): 7%
- Phytotoxicity General (basil 'Genovese' [2]; [6]): 7%
- Phytotoxicity Stunting (basil 'Genovese' [2]; [6]): 7%
- Phytotoxicity Chlorosis (basil 'Genovese' [2]; [7]): 5%
- Phytotoxicity General (basil 'Genovese' [2]; [7]): 2%
- Phytotoxicity Stunting (basil 'Genovese' [2]; [7]): 5%
- Phytotoxicity Chlorosis (basil 'Genovese' [2]; [8]): 8%
- Phytotoxicity General (basil 'Genovese' [2]; [8]): 8%
- Phytotoxicity Stunting (basil 'Genovese' [2]; [8]): 10%
- Phytotoxicity Chlorosis (basil 'Genovese' [2]; [9]): 2%
- Phytotoxicity General (basil 'Genovese' [2]; [9]): 2%
- Phytotoxicity Stunting (basil 'Genovese' [2]; [9]): 5%
- Phytotoxicity Chlorosis (basil 'Genovese' [2]; [10]): 0%
- Phytotoxicity General (basil 'Genovese' [2]; [10]): 7%
- Phytotoxicity Stunting (basil 'Genovese' [2]; [10]): 8%
- Yield Fresh weight (basil ‘Genovese’; [4]): 34.2 grams
- Yield Fresh weight (basil ‘Genovese’; rates g ai/ha: chlropyrifos 3370, chlorothalonil 7900, paclobutrazol 9.7, mepiquat-chloride 37, Isoxadifen 16, Napthalic anhydride 527, + NIS 0.25 % v/v): 36.9 grams
